From patent publication US20230416248A1, “COMPOUNDS AND USES THEREOF” (Foghorn Therapeutics Inc., priority 2020, published 2023) come the findings set out here.

Each structure is given as a SMILES string. Like-named read-outs stand apart in the source and are kept apart here.

Assay [1] deals with T1, BRM (Homo sapiens, UniProt P51531).
T1 construct: made in house; host or cells: High Five insect cells
Put plainly: ATPase catalytic activity of BRM, ADP-Glo in vitro biochemical assay. The settings on record: for IC50: 30 nM BRM, 400 μM ATP; for Ratio* (BRG1 IC50 (μM) divided by BRM IC50 (μM)): selectivity ratio BRG1 IC50 / BRM IC50. The method, boiled down: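 Recombinant BRM (30 nM) hydrolysed 400 μM ATP with 20 nM salmon sperm DNA in pH 8 Tris buffer containing 20 mM MgCl2, 50 mM NaCl, 0.1% Tween-20 and 1 mM DTT, 1 h at room temperature. ADP formed was quantified by ADP-Glo luminescence.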

For assay [2], the target named is T2, BRG-1 (Homo sapiens, UniProt P51532).
T2 construct: made in house; host or cells: High Five insect cells
Put plainly: ATPase catalytic activity of BRG-1, ADP-Glo in vitro biochemical assay. The settings on record: 30 nM BRG-1, 400 μM ATP, read-out: BRG1 IC50. Summed up:
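Biochemical ADP-Glo assay, BRG-1. Post-reaction: ATP depletion reagent, 40 min RT; ADP→ATP conversion/detection reagent, 60 min RT; luminescence read on plate luminometer.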

The mark [3] stands for this setting: ATPase catalytic activity, ADP-Glo.

T2 sequence (P51532 whole entry): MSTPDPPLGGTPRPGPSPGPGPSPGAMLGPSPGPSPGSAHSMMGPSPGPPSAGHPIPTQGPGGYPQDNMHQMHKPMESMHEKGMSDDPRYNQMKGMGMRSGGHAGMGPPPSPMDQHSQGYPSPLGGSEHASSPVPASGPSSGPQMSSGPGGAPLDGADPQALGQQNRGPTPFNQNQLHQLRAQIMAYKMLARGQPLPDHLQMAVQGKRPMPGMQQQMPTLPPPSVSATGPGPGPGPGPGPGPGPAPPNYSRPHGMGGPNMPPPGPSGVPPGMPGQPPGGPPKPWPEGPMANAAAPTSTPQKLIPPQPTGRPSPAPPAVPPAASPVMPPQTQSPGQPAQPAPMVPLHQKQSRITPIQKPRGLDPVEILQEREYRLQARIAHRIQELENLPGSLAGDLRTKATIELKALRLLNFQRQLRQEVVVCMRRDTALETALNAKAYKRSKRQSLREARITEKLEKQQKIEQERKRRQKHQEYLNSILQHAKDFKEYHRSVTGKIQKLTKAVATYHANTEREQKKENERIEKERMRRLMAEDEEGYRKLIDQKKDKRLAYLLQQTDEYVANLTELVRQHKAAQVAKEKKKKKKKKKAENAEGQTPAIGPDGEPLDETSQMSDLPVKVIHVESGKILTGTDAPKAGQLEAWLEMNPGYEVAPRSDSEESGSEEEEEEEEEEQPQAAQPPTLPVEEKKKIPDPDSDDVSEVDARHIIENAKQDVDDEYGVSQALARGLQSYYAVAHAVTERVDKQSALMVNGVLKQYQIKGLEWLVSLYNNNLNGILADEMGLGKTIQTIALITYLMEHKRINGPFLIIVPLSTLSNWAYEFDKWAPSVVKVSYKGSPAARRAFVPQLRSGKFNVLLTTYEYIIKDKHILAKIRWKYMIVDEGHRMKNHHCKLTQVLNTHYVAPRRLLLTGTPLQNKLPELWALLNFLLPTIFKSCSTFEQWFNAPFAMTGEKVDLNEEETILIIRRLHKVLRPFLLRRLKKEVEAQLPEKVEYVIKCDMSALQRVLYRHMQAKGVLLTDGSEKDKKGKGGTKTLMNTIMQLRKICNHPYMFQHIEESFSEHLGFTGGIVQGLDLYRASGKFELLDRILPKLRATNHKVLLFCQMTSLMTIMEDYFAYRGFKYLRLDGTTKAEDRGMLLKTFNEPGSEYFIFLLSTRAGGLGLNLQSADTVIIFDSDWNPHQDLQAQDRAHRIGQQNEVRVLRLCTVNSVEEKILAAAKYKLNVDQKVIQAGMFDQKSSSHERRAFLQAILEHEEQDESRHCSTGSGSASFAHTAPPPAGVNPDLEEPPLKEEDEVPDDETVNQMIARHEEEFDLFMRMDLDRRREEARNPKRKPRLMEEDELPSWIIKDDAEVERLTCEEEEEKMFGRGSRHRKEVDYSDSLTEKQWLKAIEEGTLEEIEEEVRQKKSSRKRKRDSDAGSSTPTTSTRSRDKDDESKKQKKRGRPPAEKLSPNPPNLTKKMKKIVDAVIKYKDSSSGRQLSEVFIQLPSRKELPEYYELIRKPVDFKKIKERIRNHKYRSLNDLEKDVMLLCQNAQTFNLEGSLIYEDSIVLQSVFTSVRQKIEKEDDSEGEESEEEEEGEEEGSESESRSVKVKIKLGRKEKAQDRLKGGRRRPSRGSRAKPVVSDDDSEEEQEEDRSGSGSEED
T1 sequence (P51531 whole entry): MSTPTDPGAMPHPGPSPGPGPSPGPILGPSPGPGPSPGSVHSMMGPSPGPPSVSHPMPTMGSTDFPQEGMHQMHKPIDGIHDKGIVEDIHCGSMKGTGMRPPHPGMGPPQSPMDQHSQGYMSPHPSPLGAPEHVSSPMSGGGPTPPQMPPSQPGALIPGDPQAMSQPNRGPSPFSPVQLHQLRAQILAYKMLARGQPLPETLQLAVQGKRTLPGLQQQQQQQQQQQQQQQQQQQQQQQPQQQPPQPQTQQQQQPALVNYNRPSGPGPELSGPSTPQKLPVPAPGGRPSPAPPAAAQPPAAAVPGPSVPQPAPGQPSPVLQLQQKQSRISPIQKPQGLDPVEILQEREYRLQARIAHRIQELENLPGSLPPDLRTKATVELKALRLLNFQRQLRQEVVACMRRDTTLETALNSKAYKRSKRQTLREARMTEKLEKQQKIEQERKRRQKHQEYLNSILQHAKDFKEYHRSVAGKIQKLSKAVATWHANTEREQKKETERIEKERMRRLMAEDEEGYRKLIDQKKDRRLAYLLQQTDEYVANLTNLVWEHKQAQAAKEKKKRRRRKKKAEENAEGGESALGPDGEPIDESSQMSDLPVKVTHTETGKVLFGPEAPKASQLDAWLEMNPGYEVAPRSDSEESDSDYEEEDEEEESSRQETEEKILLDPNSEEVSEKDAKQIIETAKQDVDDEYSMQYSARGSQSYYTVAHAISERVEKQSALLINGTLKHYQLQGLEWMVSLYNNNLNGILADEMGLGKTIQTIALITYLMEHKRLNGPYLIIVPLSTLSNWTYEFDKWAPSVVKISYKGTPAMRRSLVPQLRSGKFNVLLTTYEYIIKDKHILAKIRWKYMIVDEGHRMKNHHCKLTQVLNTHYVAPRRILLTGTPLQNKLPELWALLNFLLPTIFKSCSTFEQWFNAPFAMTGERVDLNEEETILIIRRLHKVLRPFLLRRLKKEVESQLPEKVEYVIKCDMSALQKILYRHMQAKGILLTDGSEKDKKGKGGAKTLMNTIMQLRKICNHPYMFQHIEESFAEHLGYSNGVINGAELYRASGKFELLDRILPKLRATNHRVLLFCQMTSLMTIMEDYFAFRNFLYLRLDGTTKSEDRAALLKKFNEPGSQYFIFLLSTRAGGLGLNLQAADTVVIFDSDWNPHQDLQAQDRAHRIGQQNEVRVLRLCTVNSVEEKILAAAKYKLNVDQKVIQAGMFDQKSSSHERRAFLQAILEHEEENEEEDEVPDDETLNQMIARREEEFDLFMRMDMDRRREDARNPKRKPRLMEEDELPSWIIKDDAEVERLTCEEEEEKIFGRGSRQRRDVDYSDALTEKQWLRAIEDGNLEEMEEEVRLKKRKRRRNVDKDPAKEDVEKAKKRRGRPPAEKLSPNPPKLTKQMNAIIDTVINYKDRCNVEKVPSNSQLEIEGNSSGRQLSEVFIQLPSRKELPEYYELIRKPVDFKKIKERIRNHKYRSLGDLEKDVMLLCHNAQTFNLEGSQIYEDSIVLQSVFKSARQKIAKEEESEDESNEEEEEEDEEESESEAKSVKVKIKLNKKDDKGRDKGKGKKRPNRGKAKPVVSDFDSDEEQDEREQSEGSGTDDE

In the case of `O=C(NCc1cc2nc(N3CCc4ccccc43)ccc2cn1)c1ccc2c(c1)S(=O)(=O)CCOC2` [Compound 50], the 50% inhibitory concentration (IC50) in assay [1] (ADP-Glo ATPase assay) came to 147 nM; in assay [2] (ADP-Glo ATPase assay) it was 1520 nM.
Turning to `COc1c(F)cnc2c1CCCN2c1ccc2cnc(CNC(=O)c3ccc4c(c3)S(=O)(=O)CCOC4)cc2n1` [Compound 802], the IC50 in assay [1] (ADP-Glo ATPase assay) was 8.1 nM; in assay [2] (ADP-Glo ATPase assay) it was 67.1 nM. Further, in assay [1] (ratio BRG1 IC50 / BRM IC50), the “Ratio*” value was 8.31.
Take `COc1cc(C(F)(F)F)ccc1-c1ccc2cnc(CNC(=O)c3ccc4c(c3)S(=O)(=O)CCOC4)cc2n1` [Compound 335]: the IC50 in assay [1] (setting [3]) stood at 24.3 nM; in assay [2] (setting [3]), 288 nM. In addition, the “Ratio*” value in assay [1] (ratio of BRG1 IC50 to BRM IC50) turned out to be 11.87.
The matching figures for `O=C(NCc1cc2nc(-c3cccc(OCC4CC4)n3)ccc2cn1)c1ccc2c(c1)S(=O)(=O)CCOC2` [Compound 381]: 19.4 nM, 241 nM and 12.43.
For `CC(c1cccc(-c2ccc3cnc(CNC(=O)c4ccc5c(c4)S(=O)(=O)CCOC5)cc3n2)n1)C(F)F` (centres unmarked) [Compound 203], the IC50 in assay [1] (ADP-Glo ATPase assay) came to 154 nM; in assay [2] (ADP-Glo ATPase assay), 1580 nM. Besides, the “Ratio* (BRG1 IC50 (μM) divided by BRM IC50 (μM))” value in assay [1] is on record as 10.23.
With `C[C@H]1COCc2ccc(C(=O)NCc3cc4nc(-c5cccc([C@@H]6CC6(F)F)n5)ccc4cn3)cc2S1(=O)=O` [Compound 393], the IC50 in assay [1] (setting [3]) turned out to be 19 nM; in assay [2] (setting [3]) it was 638 nM. For the same molecule, the “Ratio*” value in assay [1] (ratio of BRG1 IC50 to BRM IC50) is reported as 33.52.
Take `CC1CS(=O)(=O)c2cc(C(=O)NCc3cc4nc(-c5cccc(N6C[C@@H](C)O[C@@H](C)C6)n5)ccc4cn3)ccc2CO1` (some centres unmarked) [Compound 48]: the IC50 in assay [1] (ADP-Glo ATPase assay) worked out at 294 nM; in assay [2] (ADP-Glo ATPase assay), 1840 nM. Also, the “Ratio* (BRG1 IC50 (μM) divided by BRM IC50 (μM))” value in assay [1] came to 6.26.
As for `COCc1cnc2c(c1)CCCN2c1ccc2cnc(CNC(=O)c3ccc4c(c3)S(=O)(=O)CCOC4)cc2n1` [Compound 447], the IC50 in assay [1] (setting [3]) was determined as 22.1 nM; in assay [2] (setting [3]), 222 nM. Also, in assay [1] (ratio of BRG1 IC50 to BRM IC50), the “Ratio*” value was found to be 10.05.
For the molecule `O=C(NCc1cc2nc(-c3ccc(OC4CC4)cn3)ccc2cn1)c1ccc2c(c1)S(=O)(=O)CCOC2` [Compound 851], the IC50 in assay [1] (ADP-Glo ATPase assay) was 708 nM; in assay [2] (ADP-Glo ATPase assay), 2570 nM. Further, the “Ratio*” value in assay [1] (ratio BRG1 IC50 / BRM IC50) was found to be 3.64.
As for `O=C(NCc1cc2cc(-c3cncc(N4CCC4)n3)ccc2cn1)c1ccc2c(c1)S(=O)(=O)CCOC2` [Compound 257], the half-inhibitory concentration (IC50) came to 15.4 nM in assay [1] (ADP-Glo ATPase assay) and 107 nM in assay [2] (ADP-Glo ATPase assay). The “Ratio* (BRG1 IC50 (μM) divided by BRM IC50 (μM))” value in assay [1] was 6.99.
In the case of `C[C@H]1COCc2c(F)cc(C(=O)NCc3cc4nc(-c5cccc(C6CC6)n5)ccc4cn3)cc2S1(=O)=O` [Compound 458], the concentration for half-maximal inhibition (IC50) in assay [1] (setting [3]) is 19.2 nM; in assay [2] (setting [3]) it was 654 nM. Also, in assay [1] (ratio of BRG1 IC50 to BRM IC50), the “Ratio*” value was 34.03.
In the same order, the values of `Cn1c(C(F)F)cc2c(-c3ccc4cnc(CNC(=O)c5ccc6c(c5)S(=O)(=O)CCOC6)cc4n3)ccnc21` [Compound 397] are 15.2 nM, 175 nM and 11.51.
The matching figures for `Cc1cnc2c(c1)OCCN2c1ccc2cnc(CNC(=O)c3cc(Cl)c4c(c3)S(=O)(=O)CCOC4)cc2n1` [Compound 552]: 9.8 nM, 190 nM and 19.48.
With `O=C(NCc1cc2nc(N3CCCc4c(OC(F)F)ccnc43)ccc2cn1)c1ccc2c(c1)S(=O)(=O)CCOC2` [Compound 620], the IC50 is 16.8 nM in assay [1] (setting [3]) and 158 nM in assay [2] (setting [3]). Further, the “Ratio*” value in assay [1] (ratio of BRG1 IC50 to BRM IC50) is given as 9.37.
For `COc1nc(C(F)F)ccc1-c1ccc2cnc(CNC(=O)c3cc(F)c4c(c3)S(=O)(=O)CCOC4)cc2n1` [Compound 404], the IC50 in assay [1] (setting [3]) is 8.4 nM; in assay [2] (setting [3]), 142 nM. The “Ratio*” value in assay [1] (ratio of BRG1 IC50 to BRM IC50) amounted to 17.03.
For the molecule `CCO[C@H](C)c1ccc2c(n1)N(c1ccc3cnc(CNC(=O)c4ccc5c(c4)S(=O)(=O)CCOC5)cc3n1)CCC2` [Compound 636], the figures for the 50% inhibitory concentration (IC50) in assay [1] (setting [3]) and in assay [2] (setting [3]) were 271 nM and 4260 nM, respectively. Besides, the “Ratio*” value in assay [1] (ratio of BRG1 IC50 to BRM IC50) is 15.73.

A word on the IC50: it is the concentration that inhibits the measured activity by half.
